Test results taken from ChEMBL document CHEMBL4184270, “Diastereoselective synthesis of fused cyclopropyl-3-amino-2,4-oxazine β-amyloid cleaving enzyme (BACE) inhibitors and their biological evaluation” (Bioorg Med Chem Lett, 2018).

Columns and labels:
[1] = Dissociation constant, pKa of the compound by UV spectrophotometric method; format: physicochemical
[2] = Apparent permeability in pig LLC-PK1 cells; format: ADME, cell-based, Sus scrofa
[3] = Apparent intrinsic clearance in rat liver microsomes at 1 uM; format: ADME, microsome; details: read-out: CLH(app)
[4] = Apparent intrinsic clearance in human liver microsomes at 1 uM; format: ADME, microsome; details: read-out: CLH(app)
[5] = Drug level in Crl:CD(SD) rat CSF at 10 mg/kg, po administered as single dose via gavage measured after 4 hrs; format: ADME, organism-based, Cerebrospinal fluid; details: read-out: Drug uptake
[6] = Unbound plasma concentration in Crl:CD(SD) rat at 10 mg/kg, po administered as single dose via gavage measured after 4 hrs; format: ADME, organism-based; details: in vivo
[7] = Plasma concentration in Crl:CD(SD) rat at 10 mg/kg, po administered as single dose via gavage measured after 4 hrs; format: ADME, organism-based
[8] = Drug level in Crl:CD(SD) rat brain at 10 mg/kg, po administered as single dose via gavage measured after 4 hrs; format: ADME, organism-based; details: read-out: Drug uptake

pKa [1] | Papp [2] [×10⁻⁶ cm/s] | microsomal CLint at 1 µM [3] [µL/min/mg] | microsomal CLint at 1 µM [4] [µL/min/mg] | concentration at 4 h [5] [nM] | Cp(f) [6] [nM] | concentration at 4 h [7] [nM] | concentration at 4 h [8] [nM] | Structure (SMILES)
9.8 | 3.4 | 52 | < 14 | – | – | – | – | COc1cnc(C(=O)Nc2ccc(F)c([C@]3(C)CCOC(N)=N3)c2)cn1
8.8 | 2.5 | – | 162 | – | – | – | – | COc1cnc(C(=O)Nc2ccc(F)c([C@@]3(C)N=C(N)O[C@H]4C[C@H]43)c2)cn1
9.3 | 1.8 | 30 | 105 | 210 | 920 | 2300 | 1100 | COc1cnc(C(=O)Nc2ccc(F)c([C@@]3(C)N=C(N)O[C@@H]4C[C@@H]43)c2)cn1
